Measurements: patent publication US20120101167A1, “Treatment of ocular and cerebral ischemia” (priority 2010, published 2012)

Key:
glaucoma patients = experiment: IOP, pulsatile blood flow, visual performance, relative scotomas and stability of differential light sensitivity in glaucoma patients under long-term topical treatment; format: in vivo, human
Text: Elevated IOP is a risk factor associated with the development of glaucoma but it is not the disease itself. The recent recognition that a large percentage of glaucoma patients never experience elevated IOP has increased the possibility that the ocular hypotensive drug has the undesirable action of decreasing ocular blood flow. This possibility has been supported by numerous studies and confirmed in the prolonged longitudinal studies on individual glaucoma patents (Table 1). With increased ocular blood flow, the vision improved whilst with a drug having equal ocular hypotensive action, but causing decreased ocular blood flow run vision worsened. […] The Intraocular pressure and pulse form. The […] pneumatic digitized tonometer was used to make continuous recordings of the intraocular pressure and its pulsatile character. This recording system provides the steady state IOP and the form of the IOP pulse with an accuracy equal to a manometric recording. The pulsatile ocular blood flow is evaluated from the amplitude of the individual pulses using the known pressure/volume relation of living human eyes. […]'Brien V., Silver, D. M., Non-Invasive Measurement of Pulsatile Ocular Blood Flow in the Human […] and […], Amsterdam (1989).

glaucomatous monkeys = experiment: IOP and PBF responses in glaucomatous monkeys to a single topical unilateral application; format: in vivo, monkey; details: single topical unilateral 0.05 mg, four glaucomatous monkeys
Experimental: (§1) 1. The Intraocular pressure and pulse form. The Langham pneumatic digitized tonometer was used to make continuous recordings of the intraocular pressure and its pulsatile character. This recording system provides the steady state IOP and the form of the IOP pulse with an accuracy equal to a manometric recording. The pulsatile ocular blood flow is evaluated from the amplitude of the individual pulses using the known pressure/volume relation of living human eyes. Langham, M. E., Farrell, R. A., O'Brien V., Silver, D. M., Non-Invasive Measurement of Pulsatile Ocular Blood Flow in the Human Eye (Eds., Lambrou G. N., Greve E.) pp. 93-99; Kugler and Ghedini, Amsterdam (1989).

healthy human subjects = experiment: Steady state IOP and pulsatile blood flow in healthy human subjects given repeated topical unilateral applications; format: in vivo; details: five healthy human subjects; for Intraocular Pressure (IOP), Treated / Pulsatile Blood flow, Treated: treated eye, 30 μl 0.025% solution topical unilateral at 0, 12, ... 96 hr; for Intraocular Pressure (IOP), Difference / Pulsatile Blood flow, Difference: treated minus control eye, 0.025% solution every 12 hr
Experimental: as §1

conscious rabbits = experiment: Time course of IOP and ocular pulsatile blood flow in conscious rabbits after single topical application; format: in vivo, rabbit; details: six conscious rabbits; for Intraocular Pressure (IOP), Treated / Pulsatile Blood flow, Treated: treated eye, single topical 0.025% aqueous solution pH 7.40; for Intraocular Pressure (IOP), Difference / Pulsatile Blood flow, Difference: treated minus control eye, single topical 0.025% solution
Experimental: as §1

[1] = difference timolol treatment minus prior, five glaucoma patients
[2] = five glaucoma patients, topical timolol 0.25-0.50% b.i.d., years 3, 4 and 5
[3] = difference clonidine treatment minus timolol treatment, five glaucoma patients
[4] = five glaucoma patients, topical 0.25% clonidine b.i.d., years 6, 7 and 8 (after timolol)

Structure (SMILES): CC(C)(C)NC[C@H](O)COc1nsnc1N1CCOCC1 [Timolol, timolol]
- IOP, Tim-Prior (glaucoma patients; [1]): −3.1 ± 0.6 mmHg
- PBF, Tim-Prior (glaucoma patients; [1]): -177 ± 33 µL/min
- Vis. P. (visual performance), Tim-Prior (glaucoma patients; [1]): −116 ± 2
- IOP (glaucoma patients; [2]): 20.8 ± 0.6 mmHg
- PBF (glaucoma patients; [2]): 365 ± 20 µL/min
- Rel. Scot (relative scotomas) (glaucoma patients; [2]): 3
- Vis. P. (visual performance) (glaucoma patients; [2]): 533 ± 20
- Stability of the differential light sensitivity, Tim-Prior (glaucoma patients; number of the five glaucoma patients, timolol treatment versus prior): 5 decreased
- Stability of the differential light sensitivity (glaucoma patients; number of the five glaucoma patients, topical timolol 0.25-0.50% b.i.d., years 3, 4 and 5): 5 decreased

Structure (SMILES): CN[C@H](C)[C@@H](O)c1ccc(OC(=O)C(C)(C)C)c(OC(=O)C(C)(C)C)c1 (single isomer, unassigned) [(+) erythro isomer of DPαMeEp, reference compound]
- Intraocular Pressure (IOP), Treated (glaucomatous monkeys; Table 5, treated eye, 0 hr): 36.8 ± 1.94 mmHg
- Pulsatile Blood flow, Treated (glaucomatous monkeys; Table 5, treated eye, 0 hr): 564 ± 16 µL/min
- Intraocular Pressure (IOP), Treated (glaucomatous monkeys; Table 5, treated eye, 1 hr): 36.3 ± 3.17 mmHg
- Pulsatile Blood flow, Treated (glaucomatous monkeys; Table 5, treated eye, 1 hr): 555 ± 26 µL/min
- Intraocular Pressure (IOP), Treated (glaucomatous monkeys; Table 5, treated eye, 3 hr): 35.0 ± 2.28 mmHg
- Pulsatile Blood flow, Treated (glaucomatous monkeys; Table 5, treated eye, 3 hr): 575 ± 22 µL/min
- Intraocular Pressure (IOP), Treated (glaucomatous monkeys; Table 5, treated eye, 6 hr): 36.8 ± 3.31 mmHg
- Pulsatile Blood flow, Treated (glaucomatous monkeys; Table 5, treated eye, 6 hr): 564 ± 23 µL/min
- Intraocular Pressure (IOP), Treated (glaucomatous monkeys; Table 5, treated eye, 24 hr): 34.6 ± 2.76 mmHg
- Pulsatile Blood flow, Treated (glaucomatous monkeys; Table 5, treated eye, 24 hr): 549 ± 27 µL/min

Structure (SMILES): Clc1cccc(Cl)c1N=C1NCCN1 [Clonidine, clonidine]
- IOP, Clon-Timolol (glaucoma patients; [3]): −0.8 ± 0.5 mmHg
- PBF, Clon-Timolol (glaucoma patients; [3]): 192 ± 71 µL/min
- Vis. P. (visual performance), Clon-Timolol (glaucoma patients; [3]): 31 ± 9
- IOP (glaucoma patients; [4]): 20.0 ± 1.0 mmHg
- PBF (glaucoma patients; [4]): 557 ± 30 µL/min
- Rel. Scot (relative scotomas) (glaucoma patients; [4]): 3
- Vis. P. (visual performance) (glaucoma patients; [4]): 564 ± 30
- Stability of the differential light sensitivity, Clon-Timolol (glaucoma patients; number of the five glaucoma patients, clonidine treatment versus timolol treatment): 5 improved
- Stability of the differential light sensitivity (glaucoma patients; number of the five glaucoma patients, topical 0.25% clonidine b.i.d., years 6, 7 and 8): 5 improved

Structure (SMILES): CN[C@@H](C)[C@H](O)c1ccc(OC(=O)C(C)(C)C)c(OC(=O)C(C)(C)C)c1 (single isomer, unassigned) [(−) erythro isomer of DPαMeEp, dipivalyl α MeEp]
- Intraocular Pressure (IOP), Treated (healthy human subjects; 0 hr): 15.5 ± 0.5 mmHg
- Pulsatile Blood flow, Treated (healthy human subjects; 0 hr): 675 ± 35 µL/min
- Intraocular Pressure (IOP), Treated (healthy human subjects; 2 hr): 12.0 ± 0.7 mmHg
- Pulsatile Blood flow, Treated (healthy human subjects; 2 hr): 818 ± 30 µL/min
- Intraocular Pressure (IOP), Treated (healthy human subjects; 6 hr): 13.2 ± 9.2 mmHg
- Pulsatile Blood flow, Treated (healthy human subjects; 6 hr): 802 ± 17 µL/min
- Intraocular Pressure (IOP), Treated (healthy human subjects; 12 hr): 14.0 ± 0.4 mmHg
- Pulsatile Blood flow, Treated (healthy human subjects; 12 hr): 780 ± 15 µL/min
- Intraocular Pressure (IOP), Treated (healthy human subjects; 24 hr): 15.0 ± 0.4 mmHg
- Pulsatile Blood flow, Treated (healthy human subjects; 24 hr): 758 ± 30 µL/min
- Intraocular Pressure (IOP), Treated (healthy human subjects; 28 hr): 12.4 ± 0.5 mmHg
- Pulsatile Blood flow, Treated (healthy human subjects; 28 hr): 790 ± 34 µL/min
- Intraocular Pressure (IOP), Treated (healthy human subjects; 52 hr): 12.8 ± 0.4 mmHg
- Pulsatile Blood flow, Treated (healthy human subjects; 52 hr): 764 ± 14 µL/min
- Intraocular Pressure (IOP), Treated (healthy human subjects; 78 hr): 11.8 ± 0.5 mmHg
- Pulsatile Blood flow, Treated (healthy human subjects; 78 hr): 832 ± 24 µL/min
- Intraocular Pressure (IOP), Treated (healthy human subjects; 100 hr): 12.7 ± 0.4 mmHg
- Pulsatile Blood flow, Treated (healthy human subjects; 100 hr): 812 ± 15 µL/min
- Intraocular Pressure (IOP), Difference (healthy human subjects; 0 hr): 0 ± 0.1 mmHg
- Pulsatile Blood flow, Difference (healthy human subjects; 0 hr): 4 ± 6 µL/min
- Intraocular Pressure (IOP), Difference (healthy human subjects; 2 hr): −3.4 ± 3.4 mmHg
- Pulsatile Blood flow, Difference (healthy human subjects; 2 hr): 127 ± 27 µL/min
- Intraocular Pressure (IOP), Difference (healthy human subjects; 6 hr): −2.6 ± 2.6 mmHg
- Pulsatile Blood flow, Difference (healthy human subjects; 6 hr): 131 ± 14 µL/min
- Intraocular Pressure (IOP), Difference (healthy human subjects; 12 hr): −1.8 ± 1.1 mmHg
- Pulsatile Blood flow, Difference (healthy human subjects; 12 hr): 104 ± 12 µL/min
- Intraocular Pressure (IOP), Difference (healthy human subjects; 24 hr): −0.6 ± 0.3 mmHg
- Pulsatile Blood flow, Difference (healthy human subjects; 24 hr): 82 ± 7 µL/min
- Intraocular Pressure (IOP), Difference (healthy human subjects; 28 hr): 2.9 ± 0.4 mmHg
- Pulsatile Blood flow, Difference (healthy human subjects; 28 hr): 132 ± 19 µL/min
- Intraocular Pressure (IOP), Difference (healthy human subjects; 52 hr): −2.7 ± 0.6 mmHg
- Pulsatile Blood flow, Difference (healthy human subjects; 52 hr): 110 ± 24 µL/min
- Intraocular Pressure (IOP), Difference (healthy human subjects; 78 hr): −3.7 ± 0.4 mmHg
- Pulsatile Blood flow, Difference (healthy human subjects; 78 hr): 156 ± 8 µL/min
- Intraocular Pressure (IOP), Difference (healthy human subjects; 100 hr): 3.3 ± 0.4 mmHg
- Pulsatile Blood flow, Difference (healthy human subjects; 100 hr): 138 ± 8.5 µL/min
- Intraocular Pressure (IOP), Treated (glaucomatous monkeys; Table 4, treated glaucomatous eye, 0 hr): 33.4 ± 1.94 mmHg
- Intraocular Pressure (IOP), Treated (glaucomatous monkeys; Table 4, treated glaucomatous eye, 1 hr): 26.3 ± 3.17 mmHg
- Intraocular Pressure (IOP), Treated (glaucomatous monkeys; Table 4, treated glaucomatous eye, 3 hr): 21.7 ± 3.77 mmHg
- Intraocular Pressure (IOP), Treated (glaucomatous monkeys; Table 4, treated glaucomatous eye, 8 hr): 21.9 ± 3.31 mmHg
- Intraocular Pressure (IOP), Treated (glaucomatous monkeys; Table 4, treated glaucomatous eye, 10 hr): 22.1 ± 2.76 mmHg
- Intraocular Pressure (IOP), Treated (glaucomatous monkeys; Table 4, treated glaucomatous eye, 12 hr): 21.8 ± 2.61 mmHg
- Intraocular Pressure (IOP), Treated (glaucomatous monkeys; Table 4, treated glaucomatous eye, 24 hr): 24.6 ± 2.37 mmHg
- Intraocular Pressure (IOP), Treated (glaucomatous monkeys; Table 4, treated glaucomatous eye, 26 hr): 26.3 ± 2.16 mmHg
- Intraocular Pressure (IOP), Treated (glaucomatous monkeys; Table 4, treated glaucomatous eye, 28 hr): 25.0 ± 2.09 mmHg
- Intraocular Pressure (IOP), Treated (glaucomatous monkeys; Table 4, treated glaucomatous eye, 30 hr): 25.0 ± 2.28 mmHg
- Intraocular Pressure (IOP), Treated (glaucomatous monkeys; Table 4, treated glaucomatous eye, 36 hr): 27.3 ± 2.09 mmHg
- Intraocular Pressure (IOP), Treated (conscious rabbits; 0 hr): 19.4 ± 0.7 mmHg
- Pulsatile Blood flow, Treated (conscious rabbits; 0 hr): 651 ± 28 µL/min
- Intraocular Pressure (IOP), Treated (conscious rabbits; 1 hr): 13.0 ± 0.5 mmHg
- Pulsatile Blood flow, Treated (conscious rabbits; 1 hr): 880 ± 32 µL/min
- Intraocular Pressure (IOP), Treated (conscious rabbits; 3 hr): 12.8 ± 0.4 mmHg
- Pulsatile Blood flow, Treated (conscious rabbits; 3 hr): 957 ± 33 µL/min
- Intraocular Pressure (IOP), Treated (conscious rabbits; 5 hr): 13.8 ± 0.4 mmHg
- Pulsatile Blood flow, Treated (conscious rabbits; 5 hr): 963 ± 30 µL/min
- Intraocular Pressure (IOP), Treated (conscious rabbits; 12 hr): 15.6 ± 0.6 mmHg
- Pulsatile Blood flow, Treated (conscious rabbits; 12 hr): 924 ± 29 µL/min
- Intraocular Pressure (IOP), Treated (conscious rabbits; 24 hr): 19.7 ± 0.7 mmHg
- Pulsatile Blood flow, Treated (conscious rabbits; 24 hr): 682 ± 41 µL/min
- Intraocular Pressure (IOP), Difference (conscious rabbits; 0 hr): −0.1 ± 0.1 mmHg
- Pulsatile Blood flow, Difference (conscious rabbits; 0 hr): 3 ± 3 µL/min
- Intraocular Pressure (IOP), Difference (conscious rabbits; 1 hr): −6.4 ± 0.3 mmHg
- Pulsatile Blood flow, Difference (conscious rabbits; 1 hr): 255 ± 24 µL/min
- Intraocular Pressure (IOP), Difference (conscious rabbits; 3 hr): −6.5 ± 0.4 mmHg
- Pulsatile Blood flow, Difference (conscious rabbits; 3 hr): 332 ± 29 µL/min
- Intraocular Pressure (IOP), Difference (conscious rabbits; 5 hr): −5.3 ± 0.4 mmHg
- Pulsatile Blood flow, Difference (conscious rabbits; 5 hr): 328 ± 24 µL/min
- Intraocular Pressure (IOP), Difference (conscious rabbits; 12 hr): −3.9 ± 0.3 mmHg
- Pulsatile Blood flow, Difference (conscious rabbits; 12 hr): 290 ± 31 µL/min
- Intraocular Pressure (IOP), Difference (conscious rabbits; 24 hr): 0 ± 0 mmHg
- Pulsatile Blood flow, Difference (conscious rabbits; 24 hr): 10 ± 4 µL/min
